Like-named read-outs stand apart in the source and are kept apart here.
Legend:
[1] = target: T1, BRM (Homo sapiens, UniProt P51531); assay: ATPase catalytic activity of BRM, ADP-Glo in vitro biochemical assay; conditions: for IC50: 30 nM BRM, 400 μM ATP; for Ratio* (BRG1 IC50 (μM) divided by BRM IC50 (μM)): selectivity ratio BRG1 IC50 / BRM IC50
T1 construct: made in house; host or cells: High Five insect cells
Summary of the method: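 ADP-Glo luminescence, after depletion of leftover ATP and conversion of ADP, reported the activity. The 1 h room-temperature reaction held 400 μM ATP, 20 nM salmon sperm DNA and 30 nM BRM in 20 mM Tris pH 8, 20 mM MgCl2, 50 mM NaCl, 0.1% Tween-20, 1 mM DTT.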

[2] = target: T2, BRG-1 (Homo sapiens, UniProt P51532); assay: ATPase catalytic activity of BRG-1, ADP-Glo in vitro biochemical assay; conditions: 30 nM BRG-1, 400 μM ATP, read-out: BRG1 IC50
T2 construct: made in house; host or cells: High Five insect cells
Summary of the method: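 In this in vitro format, BRG-1 hydrolysis product ADP is detected via a two-step ADP-Glo workup (ATP removal, then ADP-to-ATP conversion with luciferase detection) followed by a luminescence read.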

[3] = ATPase catalytic activity, ADP-Glo

T1 sequence (P51531 whole entry): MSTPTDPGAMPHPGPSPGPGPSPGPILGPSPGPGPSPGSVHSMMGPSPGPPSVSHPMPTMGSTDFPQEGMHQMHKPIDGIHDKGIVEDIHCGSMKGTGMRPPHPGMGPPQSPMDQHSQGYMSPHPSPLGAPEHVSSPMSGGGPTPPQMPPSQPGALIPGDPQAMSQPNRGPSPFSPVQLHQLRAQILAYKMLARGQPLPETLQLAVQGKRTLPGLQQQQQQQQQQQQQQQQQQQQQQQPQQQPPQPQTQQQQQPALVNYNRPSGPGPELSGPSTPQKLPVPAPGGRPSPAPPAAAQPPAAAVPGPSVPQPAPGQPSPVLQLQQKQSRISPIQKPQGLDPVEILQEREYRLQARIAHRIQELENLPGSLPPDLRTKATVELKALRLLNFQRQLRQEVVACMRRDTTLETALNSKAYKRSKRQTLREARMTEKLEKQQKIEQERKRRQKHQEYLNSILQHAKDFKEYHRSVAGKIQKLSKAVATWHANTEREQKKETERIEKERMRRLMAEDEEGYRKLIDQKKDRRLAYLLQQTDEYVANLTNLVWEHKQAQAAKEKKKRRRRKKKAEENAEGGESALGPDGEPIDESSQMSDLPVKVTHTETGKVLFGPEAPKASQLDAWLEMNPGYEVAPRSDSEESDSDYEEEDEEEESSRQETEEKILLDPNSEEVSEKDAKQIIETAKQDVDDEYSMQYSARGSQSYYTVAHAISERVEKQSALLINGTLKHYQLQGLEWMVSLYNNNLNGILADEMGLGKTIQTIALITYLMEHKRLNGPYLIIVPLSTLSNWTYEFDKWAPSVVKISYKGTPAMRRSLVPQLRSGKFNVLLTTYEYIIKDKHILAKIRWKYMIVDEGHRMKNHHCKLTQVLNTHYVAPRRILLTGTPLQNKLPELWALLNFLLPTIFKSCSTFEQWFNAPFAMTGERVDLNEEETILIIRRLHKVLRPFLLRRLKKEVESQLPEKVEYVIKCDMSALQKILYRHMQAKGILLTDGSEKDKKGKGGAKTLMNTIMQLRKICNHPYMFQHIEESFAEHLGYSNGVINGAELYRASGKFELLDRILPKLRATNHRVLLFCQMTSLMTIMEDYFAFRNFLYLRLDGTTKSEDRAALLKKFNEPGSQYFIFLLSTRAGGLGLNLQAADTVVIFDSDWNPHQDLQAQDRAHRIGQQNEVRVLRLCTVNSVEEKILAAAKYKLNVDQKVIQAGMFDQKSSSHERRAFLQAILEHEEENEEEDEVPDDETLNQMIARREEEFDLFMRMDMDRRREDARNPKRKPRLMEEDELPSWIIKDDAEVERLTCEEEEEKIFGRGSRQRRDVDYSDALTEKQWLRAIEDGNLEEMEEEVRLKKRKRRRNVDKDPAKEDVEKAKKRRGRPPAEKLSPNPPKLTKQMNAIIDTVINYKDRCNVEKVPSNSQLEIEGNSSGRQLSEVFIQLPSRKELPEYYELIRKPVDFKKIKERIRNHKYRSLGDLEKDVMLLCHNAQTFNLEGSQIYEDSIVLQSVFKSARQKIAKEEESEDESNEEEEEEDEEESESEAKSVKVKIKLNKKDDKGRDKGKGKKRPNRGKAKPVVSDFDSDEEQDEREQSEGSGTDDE
T2 sequence (P51532 whole entry): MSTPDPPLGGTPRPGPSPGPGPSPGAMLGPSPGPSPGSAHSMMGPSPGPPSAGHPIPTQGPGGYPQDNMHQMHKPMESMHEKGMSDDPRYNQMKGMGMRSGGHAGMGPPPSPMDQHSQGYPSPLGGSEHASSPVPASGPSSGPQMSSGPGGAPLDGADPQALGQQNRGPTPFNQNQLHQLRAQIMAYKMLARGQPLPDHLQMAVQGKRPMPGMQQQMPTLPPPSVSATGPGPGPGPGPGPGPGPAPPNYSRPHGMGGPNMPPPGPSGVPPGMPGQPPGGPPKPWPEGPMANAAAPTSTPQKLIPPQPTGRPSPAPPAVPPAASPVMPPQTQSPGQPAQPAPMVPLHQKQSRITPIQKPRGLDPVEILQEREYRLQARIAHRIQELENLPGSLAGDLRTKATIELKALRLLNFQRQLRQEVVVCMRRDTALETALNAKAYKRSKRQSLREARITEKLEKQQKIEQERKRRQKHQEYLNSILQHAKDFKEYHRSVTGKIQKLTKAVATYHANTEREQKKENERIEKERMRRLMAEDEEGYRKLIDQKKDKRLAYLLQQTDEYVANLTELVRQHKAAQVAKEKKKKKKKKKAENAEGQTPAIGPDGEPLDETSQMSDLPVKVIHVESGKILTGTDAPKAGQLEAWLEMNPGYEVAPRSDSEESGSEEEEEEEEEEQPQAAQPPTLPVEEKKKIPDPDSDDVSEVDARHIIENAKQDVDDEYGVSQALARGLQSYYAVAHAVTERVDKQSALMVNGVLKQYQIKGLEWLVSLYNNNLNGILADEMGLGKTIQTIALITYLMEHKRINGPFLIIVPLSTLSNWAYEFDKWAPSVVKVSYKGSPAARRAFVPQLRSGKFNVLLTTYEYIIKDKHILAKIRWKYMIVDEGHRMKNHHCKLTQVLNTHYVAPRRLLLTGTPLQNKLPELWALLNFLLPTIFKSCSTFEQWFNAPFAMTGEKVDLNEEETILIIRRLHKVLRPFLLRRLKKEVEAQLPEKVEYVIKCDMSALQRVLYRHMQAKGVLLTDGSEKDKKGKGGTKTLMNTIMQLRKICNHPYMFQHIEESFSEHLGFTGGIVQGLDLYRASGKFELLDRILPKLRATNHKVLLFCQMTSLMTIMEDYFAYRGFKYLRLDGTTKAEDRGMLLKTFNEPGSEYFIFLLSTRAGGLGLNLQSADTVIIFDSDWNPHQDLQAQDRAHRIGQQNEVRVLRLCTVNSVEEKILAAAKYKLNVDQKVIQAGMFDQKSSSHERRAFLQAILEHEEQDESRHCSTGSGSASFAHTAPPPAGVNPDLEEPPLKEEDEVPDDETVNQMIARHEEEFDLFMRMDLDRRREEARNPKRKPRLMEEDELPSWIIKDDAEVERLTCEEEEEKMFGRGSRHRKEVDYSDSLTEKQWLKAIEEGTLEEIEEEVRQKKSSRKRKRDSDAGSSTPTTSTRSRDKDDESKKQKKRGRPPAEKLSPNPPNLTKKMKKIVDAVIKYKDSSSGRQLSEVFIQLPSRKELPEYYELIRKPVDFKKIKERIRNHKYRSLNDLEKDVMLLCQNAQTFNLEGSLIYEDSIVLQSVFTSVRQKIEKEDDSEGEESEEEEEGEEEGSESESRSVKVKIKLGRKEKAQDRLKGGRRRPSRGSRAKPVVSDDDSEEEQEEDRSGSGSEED

SMILES	IC50 [1, 3] [nM]	Ratio* ([1]; ratio of BRG1 IC50 to BRM IC50)	IC50 [2, 3] [nM]	IC50 ([1]; ADP-Glo ATPase assay) [nM]	Ratio* ([1]; ratio BRG1 IC50 / BRM IC50)	IC50 ([2]; ADP-Glo ATPase assay) [nM]	Ratio* (BRG1 IC50 (μM) divided by BRM IC50 (μM)) [1]
O=C(NCc1cc2nc(N3CCC4(CC4)c4cccnc43)ccc2cn1)c1ccc2c(c1)S(=O)(=O)CCOC2 [Compound 600]	13.2	13.32	176	–	–	–	–
C[C@@H]1C[C@@H]1c1ccc2c(n1)N(c1ccc3cnc(CNC(=O)c4ccc5c(c4)S(=O)(=O)CCOC5)cc3n1)CCO2 [Compound 832]	–	–	–	15.5	58.26	906	–
C[C@H]1CN(c2cccc(-c3ccc4cnc(CNC(=O)c5ccc(C(F)F)c(S(C)(=O)=O)c5)cc4n3)n2)C[C@H](C)O1 [Compound 162]	–	–	–	38.4	–	564	14.67
O=C(NCc1cc2nc(-c3cccc(C4CCOC4)n3)ccc2cn1)c1ccc2c(c1)S(=O)(=O)CCOC2 (stereo not drawn) [Compound 376]	66.4	8.06	535	–	–	–	–
O=C(NCc1cc2cc(-c3cncc(N4CCC4)n3)ccc2cn1)c1ccc2c(c1)S(=O)(=O)CCOC2 [Compound 257]	–	–	–	15.4	–	107	6.99
O=C(NCc1cc2cc(N3CCOc4cc(C5CC5)cnc43)cnc2cn1)c1ccc2c(c1)S(=O)(=O)CCOC2 [Compound 801]	–	–	–	111	13.00	1440	–
CC1Cc2ccc(-c3ccc4cnc(CNC(=O)c5ccc6c(c5)S(=O)(=O)CCOC6)cc4n3)nc2N(C)C1 (stereo not drawn) [Compound 612]	26.6	13.16	350	–	–	–	–
COCCN(c1cccc(-c2ccc3cnc(CNC(=O)c4ccc5c(c4)S(=O)(=O)CCOC5)cc3n2)n1)C1CC1 [Compound 349]	24.1	10.47	253	–	–	–	–
C[C@@H]1CN(c2cccc(-c3ccc4cnc(CNC(=O)c5cc(Cl)c6c(c5)S(=O)(=O)CC[C@H](C)O6)cc4n3)n2)C[C@H](C)O1 [Compound 506]	49.2	13.12	645	–	–	–	–
O=C(NCc1cc2nc(-c3cccc(C4CC4)n3)cnc2cn1)c1cc(F)c2c(c1)S(=O)(=O)CCOC2 [Compound 424]	20.8	29.03	603	–	–	–	–
COc1nc(C(C)(F)F)ccc1-c1ccc2cnc(CNC(=O)c3cc(F)c4c(c3)S(=O)(=O)[C@@H](C)COC4)cc2n1 [Compound 543]	20.2	18.97	383	–	–	–	–
CO[C@H]1C[C@H](c2cccc(-c3ccc4cnc(CNC(=O)c5ccc6c(c5)S(=O)(=O)CCOC6)cc4n3)n2)C1 [Compound 106]	–	–	–	76.1	–	667	8.76
O=C(NCc1cc2nc(-c3cccc(OC4CC(F)(F)C4)n3)ccc2cn1)c1ccc2c(c1)S(=O)(=O)CCOC2 [Compound 74]	–	–	–	122	–	1180	9.63
COc1nc(C(F)F)ccc1-c1ccc2cnc(CNC(=O)c3cc(F)c4c(c3)S(=O)(=O)CCOC4)cc2n1 [Compound 404]	8.4	17.03	142	–	–	–	–
O=C(NCc1cc2nc(N3CCCc4cc(F)cnc43)ccc2cn1)c1ccc2c(c1)S(=O)(=O)CCOC2 [Compound 591]	22	10.98	242	–	–	–	–
CC1COCc2ccc(C(=O)NCc3cc4nc(-c5cccc(N6CCC6)n5)ccc4cn3)cc2S1(=O)=O (single isomer, unassigned) [Compound 197]	–	–	–	19.3	–	244	12.64
C[C@H]1COCc2ccc(C(=O)NCc3cc4nc(-c5cccc([C@@H]6CC6(F)F)n5)ccc4cn3)cc2S1(=O)=O [Compound 393]	19	33.52	638	–	–	–	–
COc1nn(C(F)F)cc1-c1ccc2cnc(CNC(=O)c3ccc4c(c3)S(=O)(=O)CCOC4)cc2n1 [Compound 806]	–	–	–	92.3	8.67	801	–
COCCN1CCc2ccc(-c3ccc4cnc(CNC(=O)c5ccc6c(c5)S(=O)(=O)CCOC6)cc4n3)nc2C1 [Compound 772]	–	–	–	397	7.26	2880	–
CO[C@H]1CCN(c2cccc(-c3ccc4cnc(CNC(=O)c5ccc6c(c5)S(=O)(=O)CCOC6)cc4n3)n2)C[C@H]1C [Compound 437]	24.8	11.79	292	–	–	–	–
O=C(NCc1cc2nc(-c3cccc(OC4CC4)n3)ccc2cn1)c1ccc2c(c1)S(=O)(=O)CCOC2 [Compound 241]	–	–	–	62.3	–	1070	17.23
O=C(NCc1cc2nc(N3CCOc4cc(C5CC5)ccc43)cnc2cn1)c1ccc2c(c1)S(=O)(=O)CCOC2 [Compound 844]	–	–	–	19	19.99	380	–
